According to patent publication US9750256B2, “Herbicidal isoxazolo[5,4-B]pyridines” (BASF SE, priority 2012, dated 2017):

Columns and labels:
Format in all cases: in vivo
[1] = system: Polygonum convolvulus (wild buckwheat); experiment: Greenhouse post-emergence treatment of Polygonum convolvulus; settings: scale 0 (no damage) to 100 (complete destruction)
Description: (§1) The culture containers used were plastic flowerpots containing loamy sand with approximately 3.0% of humus as the substrate. The seeds of the test plants were sown separately for each species.
(§2) For the post-emergence treatment, the test plants were first grown to a height of 3 to 15 cm, depending on the plant habit, and only then treated with the active ingredients which had been suspended or emulsified in water. For this purpose, the test plants were either sown directly and grown in the same containers, or they were first grown separately as seedlings and transplanted into the test containers a few days prior to treatment.
(§3) Depending on the species, the plants were kept at 10-25° C. or 20-35° C. The test period extended over 2 to 4 weeks. During this time, the plants were tended, and their response to the individual treatments was evaluated.
(§4) Evaluation was carried out using a scale from 0 to 100. 100 means no emergence of the plants, or complete destruction of at least the aerial moieties, and 0 means no damage, or normal course of growth. A good herbicidal activity is given at values of at least 80 and a very good herbicidal activity is given at values of at least 90.

[2] = system: Amaranthus retroflexus L. (pigweed); experiment: Greenhouse post-emergence treatment of Amaranthus retroflexus L.; settings: scale 0 (no damage) to 100 (complete destruction)
Description: as §1, §2, §3, §4

[3] = system: Chenopodium album (fat-hen); experiment: Greenhouse post-emergence treatment of Chenopodium album; settings: scale 0 (no damage) to 100 (complete destruction)
Description: as §1, §2, §3, §4

[4] = system: Setaria viridis (green foxtail); experiment: Greenhouse post-emergence treatment of Setaria viridis; settings: application rate 500 [kg/ha], scale 0 (no damage) to 100 (complete destruction)
Description: as §1, §2, §3, §4

[5] = system: Echinochloa crus-galli (barnyard grass); experiment: Greenhouse post-emergence treatment of Echinochloa crus-galli; settings: application rate 500 [kg/ha], scale 0 (no damage) to 100 (complete destruction)
Description: as §1, §2, §3, §4

SMILES | damage [%] ([2]; application rate 500 [g/ha]) | damage [%] ([3]; application rate 500 [kg/ha]) | further results
O=C(NCC(F)(F)F)NN=CCCc1noc2nc(C3CC3)cc(C(=O)O)c12 [I.a.60] | – | – | damage [%] ([1]; application rate 500 [kg/ha]): 95%
O=C(O)c1cc(C2CC2)nc2onc(OC3CCCC3)c12 [I.a.91] | 100 | 98 | –
CON=CCCc1noc2nc(C3CC3)cc(C(=O)O)c12 [I.a.59] | 98 | 98 | –
O=C(O)c1cc(C2CC2)nc2onc(OC3CCCCC3Cl)c12 (stereo not shown) [I.a.88] | 100 | 100 | –
O=C(O)c1cc(C2CC2)nc2onc(OCc3ccccc3)c12 [I.a.66] | – | – | damage [%] ([2]; application rate 1000 [g/ha]): 100%; damage [%] ([3]; application rate 1000 [kg/ha]): 100%
O=C(O)c1cc(C2CC2)nc2onc(OC3CCC3)c12 [I.a.92] | 100 | 100 | damage [%] [4]: 85%
C=CCOc1noc2nc(C3CC3)cc(C(=O)O)c12 [I.a.44] | – | – | damage [%] ([2]; application rate 1000 [g/ha]): 100%; damage [%] ([3]; application rate 1000 [kg/ha]): 100%
O=C(O)c1cc(C2CC2)nc2onc(OC3COC3)c12 [I.a.89] | 70 | 70 | –
CCC(CCc1noc2nc(C3CC3)cc(C(=O)O)c12)=NO (mixture of isomers) [I.a.79] | 100 | – | damage [%] ([1]; application rate 500 [kg/ha]): 85%
COCCOc1noc2nc(C3CC3)cc(C(=O)O)c12 [I.a.67] | – | – | damage [%] ([1]; application rate 1000 [kg/ha]): 98%; damage [%] ([3]; application rate 1000 [kg/ha]): 100%
CCC(CCc1noc2nc(C3CC3)cc(C(=O)O)c12)=NOC (mixture of isomers) [I.a.80] | 100 | 98 | damage [%] ([1]; application rate 500 [kg/ha]): 100%
CCC(=O)CCc1noc2nc(C3CC3)cc(C(=O)O)c12 [I.a.74] | 98 | 98 | –
O=C(O)c1cc(C2CC2)nc2onc(SC3CCCC3)c12 [I.a.87] | 80 | 70 | damage [%] [5]: 75%
O=C(O)c1cc(C2CC2)nc2onc(SCc3ccccc3)c12 [I.a.85] | – | – | damage [%] [5]: 70%
CCC(CCc1noc2nc(C3CC3)cc(C(=O)O)c12)=NN [I.a.81] | – | 75 | –
O=C(O)c1cc(C2CC2)nc2onc(SC3CCCCC3)c12 [I.a.86] | 95 | – | –
